These results are taken from patent publication US20170253607A1, “LONG-ACTING HIV PROTEASE INHIBITOR” (Shionogi & Co., Ltd., priority 2014, published 2017).

The target in data set [1] is HIV-1 PR (Human immunodeficiency virus type 1 group M subtype B, UniProt P04585). Briefly: HIV-protease inhibitory activity assay (FRET peptide substrate). In kind it is biochemical. The settings on record: Test Example 1. The gist of the method: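 HIV-1 PR (0.83 ng) preincubated with compounds 20 min at room temperature in 0.1 mol/L NaAc, 0.5 mol/L NaCl, 1 mmol/L EDTA, 1 mmol/L DTT, 0.05% Tween 20, pH 4.8. Cleavage of HiLyte Fluor 488/QXL 520 FRET peptide (2 μmol/L) read after 60 minutes at 485/535 nm; IC50 from four-parameter logistic fit.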

Data set [2] is described as follows: Evaluation of total body clearance (CLtot), intravenous administration. It is filed as in vivo, Sprague-Dawley (SD). The settings on record: rat (SD), intravenous administration 0.5-10 mg/kg; CLtot = dose/AUC. The procedure, abridged:
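Plasma levels quantified by LC/MS/MS after intravenous tail-vein dosing (0.5-10 mg/kg, compound-dependent; n=2-3). AUC from pharmacokinetic analysis; total clearance calculated as dose/AUC.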

Each structure is given as a SMILES string.

In general, IC50 refers to the point on the concentration scale where inhibition reaches its midpoint. Read a high IC50 as weaker potency in that assay. As for `COc1ccc(S(=O)(=O)N(CC(C)C)CC(O)C(Cc2ccc(N3CCC(Oc4cc(N(C)C)ccc4-c4sc5c(c4C(=O)O)CC(C)(C)CC5)C3)cc2)NC(=O)OC2COC3(C)OCCC23)cc1` (stereo not shown) [Compound I-606], in data set [1], the IC50 was found to be 2.25 nM. In data set [2], the rat_CLt was 2.2 mL/min/kg.
In turn, `COc1ccc(S(=O)(=O)N(CC(C)C)CC(O)C(Cc2ccc(NCc3nc(N4CCCC4)sc3-c3sc4c(c3C(=O)O)CC(C)(C)CC4)cc2)NC(=O)OC2COC3(C)OCCC23)cc1` (stereo not shown) [Compound I-607] displayed an IC50 in data set [1] of 1.8 nM. In data set [2], this compound registered a rat_CLt of 0.797 mL/min/kg.
Take `CC1(C)CCc2sc(NC(=O)c3ccccc3CNc3ccc(CC(NC(=O)OC4COC5(C)OCCC45)C(O)CN(CC4CCC4)S(=O)(=O)c4ccc5c(c4)OCO5)cc3)c(C(=O)O)c2C1` (stereo not shown) [Compound I-613]: the half-maximal inhibitory concentration (IC50) in data set [1] was 2.55 nM. This compound gave a rat_CLt in data set [2] of 0.0573 mL/min/kg.
Taken in the same sequence, the figures for `COc1ccc(S(=O)(=O)N(CC(C)C)CC(O)C(Cc2ccc(NCC3CCCCC3C(=O)Nc3sc4c(c3C(=O)O)CC(C)(C)CC4)cc2)NC(=O)OC2COC3(C)OCCC23)cc1` (stereo not shown) [Compound I-614] were 2.91 nM and 0.146 mL/min/kg.
Compound `CC1(C)CCc2sc(NC(=O)c3ccccc3CNc3ccc(CC(NC(=O)OC4COC5(C)OCCC45)C(O)CN(CC4CCC4)S(=O)(=O)c4ccc5ncsc5c4)cc3)c(C(=O)O)c2C1` (stereo not shown) [Compound I-617] showed an IC50 in data set [1] of 3.13 nM. The compound also registered a rat_CLt in data set [2] of 0.098 mL/min/kg.
In the case of `COc1ccc(S(=O)(=O)N(CC(C)C)CC(O)C(Cc2ccc(NCc3cc(F)ccc3C(=O)Nc3sc4c(c3C(=O)O)CC(C)(C)CC4)cc2)NC(=O)OC2COC3(C)OCCC23)cc1` (stereo not shown) [Compound I-625], the IC50 in data set [1] turned out to be 5.07 nM. Also, in data set [2], the rat_CLt is 0.0688 mL/min/kg.
`CN(Cc1ccccc1C(=O)Nc1sc2c(c1C(=O)O)CC(C)(C)CC2)c1ccc(CC(NC(=O)OC2COC3(C)OCCC23)C(O)CN(CC2CCCC2)S(=O)(=O)c2ccc3ncsc3c2)cc1` (stereo not shown) [Compound I-636] registered a half-inhibitory concentration (IC50) in data set [1] of 4.37 nM. In addition, the rat_CLt in data set [2] is given as 0.372 mL/min/kg.
The matching figures for `COc1ccc(S(=O)(=O)N(CC(C)C)CC(O)C(Cc2ccc(NCc3cnc4sccc4c3-c3sc4c(c3C(=O)O)CC(C)(C)CC4)cc2)NC(=O)OC2COC3(C)OCCC23)cc1` (stereo not shown) [Compound I-648]: 2.31 nM and 0.783 mL/min/kg.
In data set [1], `COc1ccc(S(=O)(=O)N(CC(C)C)CC(O)C(Cc2ccc(NCc3cc4ccsc4nc3-c3sc4c(c3C(=O)O)CC(C)(C)CC4)cc2)NC(=O)OC2COC3(C)OCCC23)cc1` (stereo not shown) [Compound I-649] displayed an IC50 of 2.25 nM. The rat_CLt in data set [2] turned out to be 0.622 mL/min/kg.
As to `COc1ccc(S(=O)(=O)N(CC(C)C)CC(O)C(Cc2ccc(NCc3cc4c(cc3-c3sc5c(c3C(=O)O)CC(C)(C)CC5)OCCO4)cc2)NC(=O)OC2COC3(C)OCCC23)cc1` (stereo not shown) [Compound I-651], half-maximal inhibition in data set [1] (IC50) was put at 2 nM. The same compound returned a rat_CLt in data set [2] of 0.536 mL/min/kg.
`COc1ccc(S(=O)(=O)N(CC(C)C)CC(O)C(Cc2ccc(NCc3cc4ccccc4nc3-c3sc4c(c3C(=O)O)CC(C)(C)CC4)cc2)NC(=O)OC2COC3(C)OCCC23)cc1` (stereo not shown) [Compound I-652] returned a concentration for half-maximal inhibition (IC50) in data set [1] of 2.46 nM. Further, in data set [2], the rat_CLt turned out to be 0.641 mL/min/kg.
Compound `COc1ccc(S(=O)(=O)N(CC(C)C)CC(O)C(Cc2ccc(NCC3=C(c4sc5c(c4C(=O)O)CC(C)(C)CC5)CC(C)(C)C3)cc2)NC(=O)OC2COC3(C)OCCC23)cc1` (stereo not shown) [Compound I-662] displayed a 50% inhibitory concentration (IC50) in data set [1] of 2.51 nM. This compound also returned a rat_CLt in data set [2] of 1.11 mL/min/kg.
For the compound `COc1ccc(S(=O)(=O)N(CC(C)C)CC(O)C(Cc2ccc(NCc3cc(-n4ccccc4=O)ccc3-c3sc4c(c3C(=O)O)CC(C)(C)CC4)cc2)NC(=O)OC2COC3(C)OCCC23)cc1` (stereo not shown) [Compound I-664], the IC50 in data set [1] came out at 1.86 nM. In data set [2], this compound yielded a rat_CLt of 1.5 mL/min/kg.
In data set [1], `COc1ccc(S(=O)(=O)N(CC(C)C)CC(O)C(Cc2ccc(N3CCC(Cc4ccccc4-c4sc5c(c4C(=O)O)CC(C)(C)CC5)CC3)cc2)NC(=O)OC2COC3(C)OCCC23)cc1` (stereo not shown) [Compound I-666] registered a half-inhibitory concentration (IC50) of 4.7 nM. In data set [2], this compound displayed a rat_CLt of 0.668 mL/min/kg.
